Results on three compounds are retold here after paper PMC9654711, “Neuroprotective Action of Coumarin Derivatives through Activation of TRKB-CREB-BDNF Pathway and Reduction of Caspase Activity in Neuronal Cells Expressing Pro-Aggregated Tau Protein” (International Journal of Molecular Sciences, 2022).

Assay [1] deals with ΔK280 tauRD-DsRed SH-SY5Y cells. Description: Neurite outgrowth in cells infected with TRKB-specific or scrambled shRNA. It is filed as cell-based, human. To be noted: scrambled shRNA; 10 µM. As to the method: As described, ∆K280 tauRD-DsRed SH-SY5Y cells were seeded in a 24-well plate (5 × 10^4/well) with retinoic acid addition on day 1, treated with tested compounds (10 µM) and ∆K280 tauRD-DsRed expression was induced with doxycycline (2 μg/mL) on day 2. On day 8, after being fixed in 4% paraformaldehyde for 15 min, permeabilized in 0.1% Triton X-100 for 10 min and blocked in 3% bovine serum albumin (BSA) for 20 min, the cells were stained with TUBB3 (neuronal class III β-tubulin) primary antibody (1:1000; BioLegend, San Diego, CA, USA) at 4 °C overnight, followed by goat anti-rabbit Alexa Fluor® 555 secondary antibody (1:1000; Molecular probes) at room temperature for 2 h, with 4′-6-diamidino-2-phenylindole (DAPI, 0.1 µg/mL; Sigma-Aldrich) included for nuclei staining. Neuronal images were captured using the high-content analysis system as described. Neurite total length (μm), processes (primary neurite extensions projecting directly from the cell body) and branching (points at which primary neurites bifurcated) were analyzed using Neurite Outgrowth Application Module (MetaXpress; Molecular Devices). Around 5000 cells were analyzed in each of three independent experiments for each sample.
Lentiviral short hairpin RNA (shRNA) targeting TRKB (TRCN0000002243, TRCN0000002245 and TRCN0000002246) and a negative control scrambled (TRC2.Void, ASN000001) from National RNAi Core Facility, IMB/GRC, Academia Sinica, Taipei, Taiwan were applied to knock down TRKB expression in ∆K280 tauRD-DsRed SH-SY5Y cells. On day 1, cells were plated on 6-well (for protein analysis) or 24-well (for neurite outgrowth analysis) plates in the presence of retinoic acid as described. On day 2, the cells were infected with lentivirus (multiplicity of infection of 3 for each shRNA) in medium containing polybrene (8 µg/mL; Sigma-Aldrich) to increase the efficiency of viral infection. […] On day 9, the cells were collected for TRKB protein analysis or analyzed for neurite outgrowth as described.

The target of assay [2] is T1, TRKB-ECD-His (extracellular domain of TRKB) (Homo sapiens, UniProt Q16620).
T1 construct: extracellular domain of TRKB (TRKB-ECD) (residues 32–429, XP_016870240); Saccharomyces cerevisiae α-factor secretion signal (N, cleaved yes); made in house; host or cells: Pichia pastoris
Description: Tryptophan fluorescence quenching assay. The note with it: TRKB-ECD-His 50 nM in PBS; excitation 295 nm, emission 330 nm; compounds 0–1000 nM; read-out: TRKB-ECD binding affinity (KD). An excerpt:
The cDNA fragment containing the full-length extracellular domain of TRKB (TRKB-ECD) (residues 32–429, XP_016870240) was amplified from pDONR223-NTRK2 plasmid (Addgene, Watertown, MA, USA) using forward primer 5′-ctcgagaaaagagaggctgaagctTGTCCCACGTCCTGAAATG (XhoI site and Kex2 cleavage of the signal sequence in lowercase letters) and reverse primer 5′-gtcgac[…] (SalI site in lowercase letters). After cloning and sequencing, the TRKB-ECD fragment was excised with XhoI and SalI and subcloned into Pichia expression vector pGAPZα A (Invitrogen). The AvrII-linearized plasmid was then transformed into Pichia pastoris, and stable transformants selected and cultured at 30 °C for 4 days for constitutive expression of recombinant His-tagged TRKB-ECD. The secreted TRKB-ECD-His in cultured medium was purified using Ni-NTA His•Bind resins (Novagen, Madison, WI 53719, USA) according to the supplier’s instructions. Protein purity was examined by Coomassie blue staining of SDS-polyacrylamide gel as well as immunoblotting using anti-His (1:2000; Acris, Herford, Germany) and anti-TRKB (1:1000; Cell Signaling) antibodies.
The interaction between TRKB-ECD-His and LM-031, LMDS-1 or LMDS-2 was determined by tryptophan fluorescence titration. 7,8-DHF (Sigma-Aldrich) was included as a positive control. Tryptophan fluorescence spectra of TRKB-ECD-His (50 nM in PBS) were obtained before and after titration with different concentrations of test compounds (0–1000 nM). The fluorescent quenching was conducted in a cuvette with a 1 cm path length cell by an F-7000 fluorescence spectrophotometer (Hitachi, Tokyo, Japan) at room temperature. The intrinsic fluorescence spectra of TRKB were recorded with excitation wavelength set at 295 nm and emission wavelength in the range 300–400 nm. The dissociation constant (KD) of 7,8-DHF, LM-031, LMDS-1 and LMDS-2 to TRKB was determined by fitting the normalized fluorescence intensity at 330 nm under different concentrations of test compounds using the equation derived from Liu et al.:KD = [P]T (f − 1) + [D]T (1/f − 1), where f is the fractional change, and [P]Tand [D]Tare the total concentration of TRKB-ECD-His protein and test compound, respectively.

The test system of assay [3] is ΔK280 tauRD-DsRed SH-SY5Y folding reporter cells. The experiment in a line: High-content analysis of ΔK280 tauRD-DsRed fluorescence and cell number (folding reporter). The note with it: BDNF at 100 ng/mL, LMDS-1/2 at 10 μM; untreated = 100%; Figure 6A. It is filed as cell-based, human. As to the method: On day 1, ∆K280 tauRD-DsRed SH-SY5Y cells were seeded in a 96-well plate (3 × 10^4/well), with retinoic acid (10 µM; Sigma-Aldrich) added to induce neuronal differentiation. […] […] For ROS measurement, dichloro-dihydro-fluorescein diacetate (DCFH-DA, 10 µM; Invitrogen, Carlsbad, CA, USA) was added to the cells on day 8 and incubated at 37 °C for 30 min.

Usually Kd stands for the free concentration of one partner at which half of the binding sites on the other are occupied at equilibrium, for simple one-to-one binding.

T1 sequence (Q16620 32-429): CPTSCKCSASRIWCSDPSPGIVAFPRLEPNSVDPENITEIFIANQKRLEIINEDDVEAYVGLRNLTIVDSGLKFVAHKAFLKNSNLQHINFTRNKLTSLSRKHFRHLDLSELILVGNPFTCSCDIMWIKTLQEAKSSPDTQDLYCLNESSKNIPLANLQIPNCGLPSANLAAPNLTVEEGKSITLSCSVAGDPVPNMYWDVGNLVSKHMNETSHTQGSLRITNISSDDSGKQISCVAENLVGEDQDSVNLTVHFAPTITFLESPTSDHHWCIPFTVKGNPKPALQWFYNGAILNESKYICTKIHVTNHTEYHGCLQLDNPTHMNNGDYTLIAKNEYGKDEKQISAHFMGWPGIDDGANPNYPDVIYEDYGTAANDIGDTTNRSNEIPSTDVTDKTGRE

`O=C(c1ccccc1)c1cc2c(O)cccc2oc1=O` [LM-031, 3-benzoyl-5-hydroxychromen-2-one]: the Neurite branching in assay [1] is on record as 1.05–1.07. In assay [2], the Kd was determined as 12.7 ± 2.8 nM.

Take `CCOc1ccc2cc(C(=O)c3ccccc3)c(=O)oc2c1` [LMDS-1]: in assay [3], the DsRed fluorescence intensity was 111–112%. In assay [1], the Neurite branching was 1.05–1.07. Moreover, the Kd in assay [2] worked out at 8 ± 17 nM.

As for `O=C(c1ccccc1)c1cc2ccc(O)cc2oc1=O` [LMDS-2], the DsRed fluorescence intensity in assay [3] is given as 111–112%. In assay [1], the Neurite branching was 1.05–1.07. For the same compound, the Kd in assay [2] was determined as 6.5 ± 6.6 nM.
